Measurements reported in patent publication US20170166561A1, “QUINUCLIDINE COMPOUNDS FOR MODULATING ALPHA7-NICOTINIC ACETYLCHOLINE RECEPTOR ACTIVITY” (Alpharmagen, LLC, priority 2014, published 2017).
Structures can show the parent of a compound that is named as a salt.

Test: Human plasma stability (Protocols 1 and 2)
Format: in vitro ADME
Settings: human, plasma, 2 h, 1 μM, pH 7.4
Procedure: Example B6: Human Plasma Stability
Studies were carried out in human plasma. All plasma was obtained from Bioreclamation and collected on sodium heparin. Plasma was adjusted to pH 7.4. A DMSO stock was first prepared for the test compound. An aliquot of the DMSO solution was dosed into 1 mL of plasma, which had been pre-warmed to 37° C., at a final test compound concentration of 1 μM. The vials were kept in a benchtop Thermomixer® for the duration of the experiment. Aliquots (100 μL) were taken at each time point (0, 15, 30, 60, and 120 minutes) and added to 96-well plates which had been pre-filled with 300 μL of acetonitrile. Samples were stored at 4° C. until the end of the experiment. After the final time point was sampled, the plate was mixed and then centrifuged at 3,000 rpm for 10 minutes. Aliquots of the supernatant were removed, diluted 1:1 into distilled water, and analyzed by LC-MS/MS. The peak area response ratio to internal standard (PARR) of the compound at 15, 30, 60 and 120 minutes was compared to the PARR at time 0 to determine the percent of test compound remaining at each time point. Half-lives were calculated using GraphPad software, fitting to a single-phase exponential decay equation.
Studies were carried out in plasma. Plasma was prepared under approval of IRB and IACUC on sodium heparin. The pH of plasma was monitored and used within the range of pH 7.4 to pH 8.0. DMSO stocks were prepared for the test compounds. Aliquots of the DMSO solutions were diluted to 0.05 mM by 0.05 mM Sodium phosphate buffer with 0.5% BSA. Then 10 μL of 0.05 mM solutions were dosed into 90 μL of plasma in duplicates (n=2), which had been pre-warmed to 37° C., at a final test compound concentration of 5 μM. The plates were kept in a 37° C. water bath for the duration of the experiment. At each time point (0, 5, 15, 30, 45, 60, and 120 minutes), 400 μL of acetonitrile was added into corresponding wells. After the final time point was sampled, the plates were shaken at the vibrator (IKA, MTS 2/4) for 10 min (600 rpm/min) and then centrifuged at 5594 g for 15 min (Thermo Multifuge×3R). Aliquots of the supernatant were removed, diluted 1:1 into distilled water, and analyzed by LC-MS/MS. The peak area response ratio to internal standard (PARR) of the compounds at 5, 15, 30, 45, 60, and 120 minutes was compared to the PARR at time 0 to determine the percent of test compound remaining at each time point. Half-lives were calculated using Excel software, fitting to a single-phase exponential decay equation.

Compound | % Remaining @ 2 h [%]
O=C(OCC12CCN(CC1)CC2)c1c[nH]c2cc(Br)ccc12 [Compound 22, quinuclidin-4-ylmethyl 6-bromo-1H-indole-3-carboxylate] | 58
COc1ccc2[nH]cc(C(=O)OCC34CCN(CC3)CC4)c2c1 [Compound 18, quinuclidin-4-ylmethyl 5-methoxy-1H-indole-3-carboxylate] | 5.8
N#Cc1ccc2c(C(=O)OCC34CCN(CC3)CC4)c[nH]c2c1 [Compound 28, quinuclidin-4-ylmethyl 6-cyano-1H-indole-3-carboxylate] | 79
Cc1cccc2[nH]cc(C(=O)OCC34CCN(CC3)CC4)c12 [Compound 21, quinuclidin-4-ylmethyl 4-methyl-1H-indole-3-carboxylate] | 83
Cc1ccc2[nH]cc(C(=O)OCC34CCN(CC3)CC4)c2c1 [Compound 20, quinuclidin-4-ylmethyl 5-methyl-1H-indole-3-carboxylate] | 14
O=C(OCC12CCN(CC1)CC2)c1c[nH]c2ccc(F)cc12 [Compound 12, quinuclidin-4-ylmethyl 5-fluoro-1H-indole-3-carboxylate] | 31
COc1ccc2[nH]cc(C(=O)OCC34CCN(CC3)CC4)c2c1C [Compound 34, quinuclidin-4-ylmethyl 5-methoxy-4-methyl-1H-indole-3-carboxylate] | 55
O=C(OCC12CCN(CC1)CC2)c1c[nH]c2cccc(Br)c12 [Compound 24, quinuclidin-4-ylmethyl 4-bromo-1H-indole-3-carboxylate] | 89
O=C(OCC12CCN(CC1)CC2)c1c[nH]c2ccc(Br)cc12 [Compound 23, quinuclidin-4-ylmethyl 5-bromo-1H-indole-3-carboxylate] | 21
COc1cccc2[nH]cc(C(=O)OCC34CCN(CC3)CC4)c12 [Compound 36, quinuclidin-4-ylmethyl 4-methoxy-1H-indole-3-carboxylate] | 2.5

Same assay, conditions: human, plasma, pH 7.4

Compound | half-life at 5 μM [h] | T1/2
COc1ccc2[nH]cc(C(=O)OCC34CCN(CC3)CC4)c2c1Br [Compound 47, quinuclidin-4-ylmethyl 4-bromo-5-methoxy-1H-indole-3-carboxylate] | 4.34 | –
Cc1c(OCCO)ccc2[nH]cc(C(=O)OCC34CCN(CC3)CC4)c12 [Compound 95, quinuclidin-4-ylmethyl 5-(2-hydroxyethoxy)-4-methyl-1H-indole-3-carboxylate, 2,2,2-trifluoroacetate salt] | 6.61 | –
O=C(OCC12CCN(CC1)CC2)c1c[nH]c2cc(O)cc(Cl)c12 [Compound 46, quinuclidin-4-ylmethyl 4-chloro-6-hydroxy-1H-indole-3-carboxylate] | 14.3 | –
Cc1cc(C)c2c(C(=O)OCC34CCN(CC3)CC4)c[nH]c2c1 [Compound 54, quinuclidin-4-ylmethyl 4,6-dimethyl-1H-indole-3-carboxylate] | 11.2 | –
COc1cc(C)c2c(C(=O)OCC34CCN(CC3)CC4)c[nH]c2c1 [Compound 37, quinuclidin-4-ylmethyl 6-methoxy-4-methyl-1H-indole-3-carboxylate] | – | ∞
COc1cc2c(C(=O)OCC34CCN(CC3)CC4)c[nH]c2cc1C#N [Compound 76, quinuclidin-4-ylmethyl 6-cyano-5-methoxy-1H-indole-3-carboxylate] | 4.88 | –
O=C(OCC12CCN(CC1)CC2)c1c[nH]c2ccc3c(c12)OCCO3 [Compound 81, quinuclidin-4-ylmethyl 2,3-dihydro-7H-[1,4]dioxino[2,3-e]indole-9-carboxylate] | 4.5 | –
CNCCCOc1ccc2[nH]cc(C(=O)OCC34CCN(CC3)CC4)c2c1C [Compound 96, quinuclidin-4-ylmethyl 4-methyl-5-(3-(methylamino)propoxy)-1H-indole-3-carboxylate dihydrochloride] | 0.114 | –
Cc1ccc2[nH]cc(C(=O)OCC34CCN(CC3)CC4)c2c1Cl [Compound 63, quinuclidin-4-ylmethyl 4-chloro-5-methyl-1H-indole-3-carboxylate] | 7.05 | –
COc1cc2[nH]cc(C(=O)OCC34CCN(CC3)CC4)c2cc1C [Compound 56, quinuclidin-4-ylmethyl 6-methoxy-5-methyl-1H-indole-3-carboxylate] | 5.72 | –
Cc1cc(Br)c2c(C(=O)OCC34CCN(CC3)CC4)c[nH]c2c1 [Compound 49, quinuclidin-4-ylmethyl 4-bromo-6-methyl-1H-indole-3-carboxylate] | 13.8 | –
O=C(OCC12CCN(CC1)CC2)c1c[nH]c2ccc(F)c(Br)c12 [Compound 67, quinuclidin-4-ylmethyl 4-bromo-5-fluoro-1H-indole-3-carboxylate] | 96.9 | –
COCCOc1ccc2[nH]cc(C(=O)OCC34CCN(CC3)CC4)c2c1C [Compound 91, quinuclidin-4-ylmethyl 5-(2-methoxyethoxy)-4-methyl-1H-indole-3-carboxylate] | 8.32 | –
Cc1cc2c(C(=O)OCC34CCN(CC3)CC4)c[nH]c2cc1O [Compound 55, quinuclidin-4-ylmethyl 6-hydroxy-5-methyl-1H-indole-3-carboxylate] | 1.54 | –
Cc1ccc2[nH]cc(C(=O)OCC34CCN(CC3)CC4)c2c1Br [Compound 68, quinuclidin-4-ylmethyl 4-bromo-5-methyl-1H-indole-3-carboxylate] | – | ∞
Cc1cc(Cl)cc2[nH]cc(C(=O)OCC34CCN(CC3)CC4)c12 [Compound 50, quinuclidin-4-ylmethyl 6-chloro-4-methyl-1H-indole-3-carboxylate] | – | ∞
COc1cc(Cl)c2c(C(=O)OCC34CCN(CC3)CC4)c[nH]c2c1 [Compound 38, quinuclidin-4-ylmethyl 4-chloro-6-methoxy-1H-indole-3-carboxylate] | – | ∞
O=C(OCC12CCN(CC1)CC2)c1c[nH]c2cc(F)cc(Br)c12 [Compound 41, quinuclidin-4-ylmethyl 4-bromo-6-fluoro-1H-indole-3-carboxylate] | – | ∞
COc1cc2c(C(=O)OCC34CCN(CC3)CC4)c[nH]c2cc1O [Compound 86, quinuclidin-4-ylmethyl 6-hydroxy-5-methoxy-1H-indole-3-carboxylate] | 0.954 | –

Same assay, conditions: human; Protocol 2; plasma pH 7.4 to 8.0, 5 μM, 37° C.; read-out: T1/2

Compound | half-life at 5 μM [h]
Cc1cc2[nH]cc(C(=O)OCC34CCN(CC3)CC4)c2cc1C.Cl [Compound 73, Quinuclidin-4-ylmethyl 5,6-dimethyl-1H-indole-3-carboxylate hydrochloride] | 1.57
Cl.O=C(OCC12CCN(CC1)CC2)c1c[nH]c2cc(C(F)(F)F)ccc12 [Compound 90, quinuclidin-4-ylmethyl 6-(trifluoromethyl)-1H-indole-3-carboxylate] | 3.05
Cl.O=C(OCC12CCN(CC1)CC2)c1c[nH]c2cc(F)c(F)cc12 [Compound 51, Quinuclidin-4-ylmethyl 5,6-difluoro-1H-indole-3-carboxylate hydrochloride] | 5.89
Cl.O=C(OCC12CCN(CC1)CC2)c1c[nH]c2cc(Cl)cc(Cl)c12 [Compound 71, quinuclidin-4-ylmethyl 4,6-dichloro-1H-indole-3-carboxylate hydrochloride] | 4.71
Cc1cc2[nH]cc(C(=O)OCC34CCN(CC3)CC4)c2cc1F [Compound 72, Quinuclidin-4-ylmethyl 5-fluoro-6-methyl-1H-indole-3-carboxylate hydrochloride] | 3.8
Cc1cc(Cl)c2c(C(=O)OCC34CCN(CC3)CC4)c[nH]c2c1.Cl [Compound 65, quinuclidin-4-ylmethyl 4-chloro-6-methyl-1H-indole-3-carboxylate hydrochloride] | 5.56
Cl.O=C(OCC12CCN(CC1)CC2)c1c[nH]c2cc(Cl)c(F)cc12 [Compound 52, Quinuclidin-4-ylmethyl 6-chloro-5-fluoro-1H-indole-3-carboxylate hydrochloride] | 8.88
COc1cc(Cl)cc2[nH]cc(C(=O)OCC34CCN(CC3)CC4)c12.Cl [Compound 74, quinuclidin-4-ylmethyl 6-chloro-4-methoxy-1H-indole-3-carboxylate hydrochloride] | 2.94
Cc1ccc2c(C(=O)OCC34CCN(CC3)CC4)c[nH]c2c1.Cl [Compound 45, Quinuclidin-4-ylmethyl 6-methyl-1H-indole-3-carboxylate hydrochloride] | 1.93
